In brackets after ≈: the same amount, converted by molar mass.
Key:
Streptococcus mutans [1] = assay: (§1) Antibacterial activity against Streptococcus mutans UA159 assessed as log decrease in bacterial count per biofilm recovered from hydroxyapatite disc using high dose compound containing hydroxyapatite bound tooth-binding micelles formed from biocompatible pluronic copolymers modified with alendronat measured after 48 hrs post dose; assay type: functional
Streptococcus mutans [2] = assay: as §1, with “low” for “high”; assay type: functional
[3] = Drug release from hydroxyapatite bound tooth-binding micelles formed from biocompatible pluronic copolymers modified with alendronat assessed as compound release into medium after 48 hrs; assay type: physicochemical
Streptococcus mutans [4] = assay: as §1, with “medium” for “high”; assay type: functional
Streptococcus mutans [5] = assay: Antibacterial activity against Streptococcus mutans UA159; assay type: functional

For `CC(C)=CCC/C(C)=C/CC/C(C)=C/CO` [FARNESOL], the FC (Streptococcus mutans [1]) was 4, the FC (Streptococcus mutans [2]) was 4 and the Activity [3] was 10%. It also gave an FC (Streptococcus mutans [4]) of 4 and an MIC (Streptococcus mutans [5]) of 125 µM (≈ 27.8 µg/mL).

Reference: ChEMBL document CHEMBL1671671, “Tooth-binding micelles for dental caries prevention” (Antimicrob Agents Chemother, 2009)
